Laboratory results: US20220023323A1, “RESETTING BIOLOGICAL PATHWAYS FOR DEFENDING AGAINST AND REPAIRING DETERIORATION FROM HUMAN AGING” (priority 2015, published 2022)

Key:
[1] = cited from earlier work
[2] = cited from earlier work; remark: listed apart in the source
[3] = biological target: PARP-1 (Homo sapiens, UniProt P09874); conditions: cited from earlier work
[4] = tested on: Sirtuins; conditions: most Sirtuins; cited from earlier work
[5] = cited from earlier work; remark: listed apart in the source
[6] = tested on: CMV IgG; assay: LabCor monthly serum marker testing: CMV IgG; assay type: in vivo, human; conditions: person, oral twice daily
Procedure: (§1) A person weighing 88 kg at the beginning of the treatment was treated with a regimine of category 1, category 2, and category 3 molecules as noted below.
Typical final concentrations of NMN taken by subject were 3.5 grams in 500 mL H2O, betaine were 3 grams in 500 mL H2O, H2O2 were (2 drops of 35% concentration in 500 mL H2O), and NaSH were (drops of 2 at 66 uM per drop concentration in 500 mL H2O).
(§2) The amounts of each composition were set so that by the subject drinking the full 500 mL a final dosage approximately 1.19×10^−4 moles NMN/kg body weight per dose, 2.91×10^−4 moles betaine/kg body weight per dose, 1.17×10^−5 moles of H2O2/kg of body weight per dose, and 1.51×10^−6 moles cf NaSH/kg of body weight per dose was given to the subject through drinking the 500 mL solution.
(§3) By taking two similar dosages per day, the sum of the two daily equal allotments was • Nicotinamide Mononucleotide (NMN) dosage−2.38×10^−4 moles/Kg body weight/day • The betaine dosage−5.82×10^−4 moles/Kg body weight/day • The Hydrogen Peroxide (H2O2) dosage−2.34×10^−5 moles/Kg body weight/day • The Sodium Hydrogen Sulfide (NaSH) dosage−3.02×10^−6 moles/Kg body weight/day
(§4) The subject self-administered the formulations orally through drinking the solution at approximately 7AM and 7 PM each day. These times were chosen because they approximated the subjects' biological clock peaks of NAD+ as determined by Ramsey K 2009. This had the effect of pulsing the ingredients into the body twice a day. approximately timed with the biological clock of the subject.
(§5) LabCor Inc. performed the marker testing using standard protocols on a monthly basis. Blood draw times ranged between 8:19 am and 8:54 am. Inflammatory measurements are correlated to the biological clock. LabCor tested levels of CMV IgG, C-Reactive Protein, Tumor Necrosis Factor-Alpha, and Interleukin-6 in Serum.

[7] = tested on: C-Reactive Protein; assay: LabCor monthly serum marker testing: C-Reactive Protein; assay type: in vivo, human; conditions: for C-Reactive Protein: serum, person, oral twice daily, baseline 2.77
Procedure: The amounts of each composition were set so that by the subject drinking the full 500 mL a final dosage approximately 1.19×10^−4 moles NMN/kg body weight per dose, […] through drinking the 500 mL solution. […]
as §4, §5

[8] = tested on: Tumor Necrosis Factor-Alpha; assay: LabCor monthly serum marker testing: Tumor Necrosis Factor-Alpha; assay type: in vivo, human; conditions: person, oral twice daily, baseline 1.1
Procedure: The amounts of each composition were set so that by the […] given to the subject through drinking the 500 mL solution. […]
as §4, §5

[9] = tested on: Interleukin-6; assay: LabCor monthly serum marker testing: Interleukin-6; assay type: in vivo, human; conditions: person, oral twice daily, study month 3: NMN alone, 3rd month, baseline 1.3
Procedure: as §1, §2, §3, §4
LabCor Inc. performed the marker testing using standard protocols on a monthly basis. […]

[10] = tested on: Inflammation Score; assay: Inflammation Score (sum of the markers) and aging prediction after Arai 2015; assay type: in vivo, human; conditions: person, baseline 5.17
Description: Inflammation markers can be analyzed for aging including those markers found in the study by Arai in 2015. Aria found inflammation markers that were predictive of who would continue to live (life-span) and who would be physically and cognitively healthy (health-span). The markers used were CMV IgG, IL-6, TNF-alpha and CRP.
as §5
In the baseline condition for the subject, both C-reactive Protein (2.77 mg/L) and Interleukin-6 (1.3 pg/m14 measurements were above the “unrelated family” level (0.7 mg/l and 1.13 pg/mL) (Arai Y 2015, Table 1) as well as the “offspring” level (0.7 mg/l and 1.03 pg/mL) (Arai Y. 2015, Table 1) respectively. The […] subject of this study has a similar age to the “offspring” group and the “unrelated family” group of Arai. These two inflammation test scores effect the prediction algorithm to predict a worse aging outcome for the subject than the “offspring” or “unrelated family” groups of Arai at baseline.

[11] = NMN given to mice; cited from earlier work
[12] = biological target: T1, CD38 (Homo sapiens, UniProt P28907); conditions: CD38 substrate; cited from earlier work
T1 sequence (P28907 1-300): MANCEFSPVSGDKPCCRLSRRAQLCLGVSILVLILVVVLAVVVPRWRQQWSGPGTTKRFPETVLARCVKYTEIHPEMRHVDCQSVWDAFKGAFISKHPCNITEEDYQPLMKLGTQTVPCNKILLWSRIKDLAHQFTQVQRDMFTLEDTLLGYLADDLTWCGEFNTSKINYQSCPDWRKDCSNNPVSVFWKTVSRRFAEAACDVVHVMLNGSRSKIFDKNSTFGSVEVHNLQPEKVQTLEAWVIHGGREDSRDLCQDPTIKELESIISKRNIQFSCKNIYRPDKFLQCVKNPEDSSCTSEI

[13] = biological target: Sirt1 (Homo sapiens, UniProt Q96EB6); conditions: cited from earlier work
[14] = estimated; cited from earlier work
[15] = no light and no contaminants in deionized/distilled H2O; cited from earlier work
[16] = study month 1: NMN alone, 1st month
[17] = study month 2: NMN alone, 2nd month
[18] = study month 3: NMN alone, 3rd month

Sirt1, sequence (Q96EB6 whole entry): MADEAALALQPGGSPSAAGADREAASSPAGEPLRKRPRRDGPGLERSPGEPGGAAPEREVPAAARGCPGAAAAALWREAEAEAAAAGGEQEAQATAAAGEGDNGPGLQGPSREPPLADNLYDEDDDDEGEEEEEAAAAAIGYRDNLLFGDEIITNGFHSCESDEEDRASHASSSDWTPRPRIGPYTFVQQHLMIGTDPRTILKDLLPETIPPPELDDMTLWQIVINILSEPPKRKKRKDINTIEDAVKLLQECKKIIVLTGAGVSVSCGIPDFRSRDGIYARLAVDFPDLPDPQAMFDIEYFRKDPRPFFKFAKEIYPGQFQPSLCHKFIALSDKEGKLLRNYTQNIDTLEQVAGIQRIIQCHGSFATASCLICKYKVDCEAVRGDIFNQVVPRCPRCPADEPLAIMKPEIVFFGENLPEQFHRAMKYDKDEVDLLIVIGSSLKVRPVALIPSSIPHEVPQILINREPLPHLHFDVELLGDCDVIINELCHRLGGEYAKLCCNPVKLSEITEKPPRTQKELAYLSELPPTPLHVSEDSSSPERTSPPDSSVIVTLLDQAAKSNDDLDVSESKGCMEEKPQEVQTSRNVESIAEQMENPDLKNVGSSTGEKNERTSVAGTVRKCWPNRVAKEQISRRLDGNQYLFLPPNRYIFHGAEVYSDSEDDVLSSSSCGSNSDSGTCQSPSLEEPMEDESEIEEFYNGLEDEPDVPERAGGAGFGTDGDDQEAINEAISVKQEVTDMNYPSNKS
PARP-1, sequence (P09874 whole entry): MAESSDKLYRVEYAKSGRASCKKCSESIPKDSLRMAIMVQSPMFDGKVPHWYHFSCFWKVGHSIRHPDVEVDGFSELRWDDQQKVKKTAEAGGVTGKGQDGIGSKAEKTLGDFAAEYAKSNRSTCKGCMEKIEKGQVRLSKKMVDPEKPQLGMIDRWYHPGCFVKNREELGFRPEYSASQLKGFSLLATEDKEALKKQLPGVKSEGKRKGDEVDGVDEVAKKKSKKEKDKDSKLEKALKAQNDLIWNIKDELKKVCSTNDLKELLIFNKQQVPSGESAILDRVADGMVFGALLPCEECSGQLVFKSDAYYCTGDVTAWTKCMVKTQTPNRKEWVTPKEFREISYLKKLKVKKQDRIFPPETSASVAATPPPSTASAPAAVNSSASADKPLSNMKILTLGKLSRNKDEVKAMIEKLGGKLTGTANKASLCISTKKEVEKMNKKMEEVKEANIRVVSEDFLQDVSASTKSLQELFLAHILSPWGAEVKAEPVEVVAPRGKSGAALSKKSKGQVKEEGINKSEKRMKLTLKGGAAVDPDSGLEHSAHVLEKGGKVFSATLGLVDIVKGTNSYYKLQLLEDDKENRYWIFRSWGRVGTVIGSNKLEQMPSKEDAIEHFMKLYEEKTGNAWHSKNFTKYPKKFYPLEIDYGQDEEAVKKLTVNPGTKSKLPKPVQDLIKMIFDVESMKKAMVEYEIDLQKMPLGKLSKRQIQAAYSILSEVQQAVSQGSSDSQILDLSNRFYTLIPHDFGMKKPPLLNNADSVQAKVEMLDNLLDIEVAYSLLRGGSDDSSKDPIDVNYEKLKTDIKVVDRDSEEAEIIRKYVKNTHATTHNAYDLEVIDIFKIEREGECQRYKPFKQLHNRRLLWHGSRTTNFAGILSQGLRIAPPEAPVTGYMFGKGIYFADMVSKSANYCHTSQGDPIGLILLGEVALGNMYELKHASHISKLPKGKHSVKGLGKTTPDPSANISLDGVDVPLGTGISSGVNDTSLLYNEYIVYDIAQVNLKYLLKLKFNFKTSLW

S [NaHS, sodium hydrosulfide]
time to increase of H2S concentration ([1]; H2S donors): within seconds to minutes

C[S+](CC[C@H](N)C(=O)O)C[C@H]1O[C@@H](n2cnc3c(N)ncnc32)[C@H](O)[C@@H]1O (stereo partly drawn) [SAM, S-5′-adenosyl-L-methionine]
fraction that gets into the body when ingested [2]: about 2%

S [H2S, hydrogen sulfide]
half-life ([1]; under in vivo conditions): between seconds and minutes

NC(=O)c1ccc[n+]([C@@H]2O[C@H](COP(=O)([O-])OP(=O)(O)OC[C@H]3O[C@@H](n4cnc5c(N)ncnc54)[C@H](O)[C@@H]3O)[C@@H](O)[C@H]2O)c1 [NAD+, nicotinamide adenine dinucleotide]
Km ([3]; PARP-1, substrate NAD+): 20 to 60 µM | Km of PARP-1 lower than Sirtuin-1 ([3]; PARP-1 compared to Sirt1): 5 fold | Km [4]: 100 to 300 µM | absorption through the digestive system ([5]; in vivo): not absorbed well

NC(=O)c1ccc[n+]([C@@H]2O[C@H](COP(=O)([O-])O)[C@@H](O)[C@H]2O)c1 [NMN, Nicotinamide mononucleotide]
CMV IgG [6, 16]: 0 | CMV IgG [6, 17]: 0 | CMV IgG [6, 18]: 0 | CRP ([7]; after two months of treatment with NMN, subject): 0.43 mg/L | C-Reactive Protein [7, 17]: 0.43 mg/L | C-Reactive Protein [7, 18]: 0.53 mg/L | Tumor Necrosis Factor-Alpha [8, 16]: 0.9 pg/mL | Tumor Necrosis Factor-Alpha [8, 17]: 1.1 pg/mL | Tumor Necrosis Factor-Alpha [8, 18]: 1.1 pg/mL | Interleukin-6 Serum [9]: 0.9 pg/mL | Inflammation Score [10, 16]: 8.55 | Inflammation Score [10, 17]: 2.23 | Inflammation Score [10, 18]: 2.53 | time to create NAD+ out of the NMN [11]: 15 min | kcat relative to that of NAD+ [12]: 5 fold

OO [H2O2, hydrogen peroxide]
extracellular H2O2 inhibition of Sirt1 ([13]; extracellular H2O2): 1 µmol | extracellular concentration that inhibits Sirt1 ([13]; oxidizing critical cysteine residues in the Sirtuin active center): 1 µM | fraction absorbed by the gut [14]: ~50% | degradation rate [15]: about 10 %/year

NC(=O)c1ccc[n+]([C@@H]2O[C@H](CO)[C@@H](O)[C@H]2O)c1 [NR, nicotinamide riboside]
reaching muscle ([5]; orally delivered): largely not reach muscle
